# Reference: PubChem BioAssay (NCI)
#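 Method: 48-hour compound exposure of cells in 96-well plates, five concentrations, linear interpolation of endpoints. Definition used: TGI = concentration required for complete inhibition of growth.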 Where a SMILES comes first, the peptide text is derived from it. The star is where a group is joined. Boc = CC(C)(C)OC(=O)*; tBu = CC(C)(C)*
# Tests used:
# Assay in all cases: NCI-60 cell line screen, 48 h
# [1] = system: SW-620 colon
# [2] = system: BT-549 breast
# [3] = system: 786-0 renal
# [4] = system: MDA-N
# [5] = system: HOP-92 NSCLC
# [6] = system: SF-539 CNS
# [7] = system: A549 NSCLC
# [8] = system: UO-31 renal
# [9] = system: IGROV1 ovarian
# [10] = system: ACHN renal
# [11] = system: SK-MEL-5 melanoma
Structure (SMILES),TGI [1] [µM],TGI [2] [µM],TGI [3] [µM],TGI [4] [µM],TGI [5] [µM],TGI [6] [µM],TGI [7] [µM],TGI [8] [µM],TGI [9] [µM],TGI [10] [µM],TGI [11] [µM]
Cc1cc(NS(=O)(=O)c2ccc(NC(=O)c3ccc4nc5ccccc5c(Nc5ccc(S(=O)(=O)Nc6cc(C)on6)cc5)c4c3)cc2)no1,> 50,> 50,> 50,> 50,> 50,> 50,> 50,> 50,> 50,> 50,> 50
Cc1cc(/N=C/c2ccc(Cl)cc2)n(-c2ccccc2)n1,> 100,> 100,> 100,> 100,> 100,> 100,> 100,> 100,> 100,> 100,68.8
CC(C)CCCC(C)[C@H]1CCC2[C@@H]3CCC4Cc5nc6c(nc5C[C@]4(C)C3CC[C@@]21C)CC1CC[C@@H]2C(CC[C@@]3(C)C2CC[C@@H]3O)[C@@]1(C)C6 (stereo partly specified),> 100,> 100,> 100,> 100,> 100,> 100,> 100,> 100,> 100,> 100,> 100
O=C1c2ccccc2-n2c1nc1ccc(Cl)cc1c2=O,> 100,> 100,> 100,48.3,> 100,> 100,> 100,> 100,> 100,> 100,> 100
CCCCOc1ccc(S(=O)(=O)/N=C(\N)Nc2ccc(Cl)cc2)cc1,32.3,32.5,30.9,30.4,23.7,54.9,45.8,34.8,28.9,27.7,47.8
CC(OC(C)(C)C)C(NC(=O)C(N)CCCCNC(=O)OC(C)(C)C)C(=O)NC(Cc1ccccc1)C(=O)O (stereo unspecified) (H-Lys(Boc)-Thr(tBu)-Phe-OH; configuration not given here),> 100,> 100,> 100,> 100,> 100,> 100,> 100,> 100,> 100,> 100,> 100
